Assays:
[1] = molecular target: T1, bFUCA1 (Bos taurus, UniProt Q2KIM0); test: enzyme inhibition assay with 4-nitrophenyl α-L-fucopyranoside; format: biochemical
T1 sequence (Q2KIM0 23-468): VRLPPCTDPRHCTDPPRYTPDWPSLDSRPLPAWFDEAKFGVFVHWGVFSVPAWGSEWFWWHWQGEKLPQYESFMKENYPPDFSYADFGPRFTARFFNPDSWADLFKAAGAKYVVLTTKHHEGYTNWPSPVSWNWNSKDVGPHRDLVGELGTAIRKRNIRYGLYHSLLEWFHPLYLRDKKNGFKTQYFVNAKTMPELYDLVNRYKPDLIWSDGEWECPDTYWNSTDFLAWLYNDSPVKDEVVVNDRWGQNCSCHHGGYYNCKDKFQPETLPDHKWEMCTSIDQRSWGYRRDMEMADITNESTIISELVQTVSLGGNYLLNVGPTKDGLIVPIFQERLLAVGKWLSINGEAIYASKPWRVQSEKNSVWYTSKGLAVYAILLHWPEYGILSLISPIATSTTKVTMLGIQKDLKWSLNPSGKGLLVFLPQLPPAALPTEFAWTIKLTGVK

[2] = molecular target: T2, BT2970 (Bacteroides thetaiotaomicron, UniProt Q8A3I4); test: enzyme inhibition; format: biochemical
T2 sequence (Q8A3I4 30-484): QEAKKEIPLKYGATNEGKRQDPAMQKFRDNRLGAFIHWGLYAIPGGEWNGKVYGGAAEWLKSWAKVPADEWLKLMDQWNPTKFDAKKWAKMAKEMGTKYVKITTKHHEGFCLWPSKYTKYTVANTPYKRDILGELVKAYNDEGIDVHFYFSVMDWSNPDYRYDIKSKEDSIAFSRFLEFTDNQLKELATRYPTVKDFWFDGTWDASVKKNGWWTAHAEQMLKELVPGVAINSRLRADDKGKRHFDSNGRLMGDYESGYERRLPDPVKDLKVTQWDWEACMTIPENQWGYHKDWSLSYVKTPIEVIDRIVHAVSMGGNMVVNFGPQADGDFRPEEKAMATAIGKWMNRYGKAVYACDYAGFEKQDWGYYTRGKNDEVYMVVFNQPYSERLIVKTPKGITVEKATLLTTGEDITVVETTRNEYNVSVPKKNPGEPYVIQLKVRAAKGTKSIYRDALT

Compound	Ki [1]	Ki [2]
C[C@@H]1OC(=NO)[C@@H](O)[C@H](O)[C@@H]1O [compound 12, 1,5-hydroximolactone 12]	323 ± 12 µM	–
CCCNC(=O)ON=C1O[C@@H](C)[C@@H](O)[C@@H](O)[C@@H]1O [compound 29, 29]	190 ± 11 µM	–
C=CCNC(=O)ON=C1O[C@@H](C)[C@@H](O)[C@@H](O)[C@@H]1O [compound 30, 30]	175 ± 6 µM	–
CCCCNC(=O)ON=C1O[C@@H](C)[C@@H](O)[C@@H](O)[C@@H]1O [compound 31, 31]	172 ± 7 µM	–
CCCCCCNC(=O)ON=C1O[C@@H](C)[C@@H](O)[C@@H](O)[C@@H]1O [compound 32, 32]	143 ± 8 µM	–
CC(C)NC(=O)ON=C1O[C@@H](C)[C@@H](O)[C@@H](O)[C@@H]1O [compound 33, 33]	320 ± 12 µM	–
C[C@@H]1OC(=NOC(=O)NC(C)(C)C)[C@@H](O)[C@H](O)[C@@H]1O [compound 34, 34]	440 ± 9 µM	–
C[C@@H]1OC(=NOC(=O)NC2CC2)[C@@H](O)[C@H](O)[C@@H]1O [compound 35, 35]	184 ± 6 µM	–
C[C@@H]1OC(=NOC(=O)NC2CCC2)[C@@H](O)[C@H](O)[C@@H]1O [compound 36, 36]	220 ± 12 µM	–
C[C@@H]1OC(=NOC(=O)NC2CCCC2)[C@@H](O)[C@H](O)[C@@H]1O [compound 37, 37]	325 ± 8 µM	–
C[C@@H]1O/C(=N\OC(=O)Nc2ccccc2)[C@@H](O)[C@H](O)[C@@H]1O [compound 39, 39]	11 ± 1 µM	121 ± 24 µM
C[C@@H]1OC(=NOC(=O)Nc2ccc(Br)cc2)[C@@H](O)[C@H](O)[C@@H]1O [compound 40, 40]	85 ± 4 µM	–
COc1ccc(NC(=O)ON=C2O[C@@H](C)[C@@H](O)[C@@H](O)[C@@H]2O)cc1 [compound 41, 41]	9.5 ± 0.9 µM	–
CCCCc1ccc(NC(=O)ON=C2O[C@@H](C)[C@@H](O)[C@@H](O)[C@@H]2O)cc1 [compound 42, 42]	7.5 ± 0.4 µM	–
CCCCCCCCCCc1ccc(NC(=O)ON=C2O[C@@H](C)[C@@H](O)[C@@H](O)[C@@H]2O)cc1 [compound 43, 43]	4.8 ± 0.5 µM	–

From PMC6589914 (Chembiochem, 2019)
